The values that follow come from ChEMBL document CHEMBL3045569, “Synthesis of allyl esters of fatty acids and their ovicidal effect on Cydia pomonella (L.)” (2009).

For orientation: mortality means the share of the test organisms that died. What is called LC50 is the concentration that kills 50% of the test population.

Values after ≈ are worked out from the molar mass of the structure shown. Active and inactive are the calls of the source. No cut-off for these calls is given here.

The first experiment deals with Cydia pomonella. The experiment in a line: Ovicidal activity against <24 hr-old Cydia pomonella (codling moth) eggs assessed as corrected mortality at 10 mg/ml applied as 0.1 ul drop solution topically measured for 3 days. The class given is functional. Conditions: topical, 72 h.
With `C=CCOC(=O)CCC` [ALLYL BUTANOATE], the mortality at 10000 µg/mL was determined as 100%.
Consider `C=CCOC(=O)CCCCCCCCC` [ALLYL DECANOATE], for which the mortality at 10000 µg/mL was determined as 100%.
For the compound `C=CCOC(=O)CCCCCCCCCCC` [ALLYL DODECANOATE], the mortality at 10000 µg/mL came to 100%.
With `C=CCOC(=O)CCCCC` [ALLYL HEXANOATE], the mortality at 10000 µg/mL came to 100%.

The next experiment concerns Cydia pomonella. Nature of the experiment: Ovicidal activity against <24 hr-old Cydia pomonella (codling moth) eggs assessed as mortality at the stage of white head development at 10 mg/ml applied as 0.1 ul drop solution topically measured for 3 days (acetone Rvb = 1.1 +/-0.44%). In kind it is functional. Conditions: topical, 72 h.
On to `C=CCOC(=O)CCC` [ALLYL BUTANOATE], for which the mortality at 10000 µg/mL turned out to be 75.6%.
On the same count and under the same terms, then `C=CCOC(=O)CCCCCCCCC` [ALLYL DECANOATE], with 68.9%.
For the compound `C=CCOC(=O)CCCCCCCCCCC` [ALLYL DODECANOATE], the mortality at 10000 µg/mL was found to be 68.9%.
On the same count and under the same terms, then `C=CCOC(=O)CCCCC` [ALLYL HEXANOATE], with 67.8%.

A further experiment concerns Cydia pomonella. The experiment in a line: Ovicidal activity against <24 hr-old Cydia pomonella (codling moth) eggs assessed as mortality at the stage of red ring development at 10 mg/ml applied as 0.1 ul drop solution topically measured for 3 days (acetone Rvb = 4.4 +/-0.22%). The class given is functional. Conditions: topical, 72 h.
In the case of `C=CCOC(=O)CCC` [ALLYL BUTANOATE], the mortality at 10000 µg/mL was 14.4%.
On the same count and under the same terms, then `C=CCOC(=O)CCCCCCCCC` [ALLYL DECANOATE], with 16.7%.
As for `C=CCOC(=O)CCCCCCCCCCC` [ALLYL DODECANOATE], the mortality at 10000 µg/mL amounted to 12.2%.
Consider `C=CCOC(=O)CCCCC` [ALLYL HEXANOATE], for which the mortality at 10000 µg/mL came to 13.3%.

The subject of the next experiment is Cydia pomonella. Nature of the experiment: Ovicidal activity against <24 hr-old Cydia pomonella (codling moth) eggs assessed as increase in duration of the development of eggs applied as 0.1 ul drop solution topically measured for 3 days. In kind it is functional, organism-based.
Conditions: not given
For the compound `C=CCOC(=O)CCC` [ALLYL BUTANOATE], the result was Active.
`C=CCOC(=O)CCCCCCCCC` [ALLYL DECANOATE]: the outcome was Active.
In the case of `C=CCOC(=O)CCCCCCCCCCC` [ALLYL DODECANOATE], the result was Active.
`C=CCOC(=O)CCCCC` [ALLYL HEXANOATE]: the outcome was Active.

Another experiment concerns Cydia pomonella. Nature of the experiment: Ovicidal activity against <24 hr-old Cydia pomonella (codling moth) eggs assessed as corrected mortality at 1 mg/ml applied as 0.1 ul drop solution topically measured for 3 days. In kind it is functional. Conditions: topical, 72 h.
Regarding `C=CCOC(=O)CCC` [ALLYL BUTANOATE], the mortality at 1000 µg/mL came out at 42.7%.
For the compound `C=CCOC(=O)CCCCCCCCC` [ALLYL DECANOATE], the mortality at 1000 µg/mL worked out at 30.5%.
On to `C=CCOC(=O)CCCCCCCCCCC` [ALLYL DODECANOATE], for which the mortality at 1000 µg/mL came to 36.4%.
Take `C=CCOC(=O)CCCCC` [ALLYL HEXANOATE]: the mortality at 1000 µg/mL came to 51.2%.

The next experiment relates to Cydia pomonella. Nature of the experiment: Ovicidal activity against <24 hr-old Cydia pomonella (codling moth) eggs assessed as corrected mortality at 5 mg/ml applied as 0.1 ul drop solution topically measured for 3 days. The following applies: topical, 72 h. The class given is functional.
With `C=CCOC(=O)CCC` [ALLYL BUTANOATE], the mortality at 5000 µg/mL is 98.7%.
Consider `C=CCOC(=O)CCCCCCCCC` [ALLYL DECANOATE], for which the mortality at 5000 µg/mL was determined as 98.7%.
Same read-out and setting: then `C=CCOC(=O)CCCCCCCCCCC` [ALLYL DODECANOATE], with 96.5%.
As for `C=CCOC(=O)CCCCC` [ALLYL HEXANOATE], the mortality at 5000 µg/mL was found to be 98.7%.

In the next experiment the test system is Cydia pomonella. Nature of the experiment: Ovicidal activity against <24 hr-old Cydia pomonella (codling moth) eggs assessed as corrected mortality at 2.5 mg/ml applied as 0.1 ul drop solution topically measured for 3 days. Conditions: topical, 72 h. In kind it is functional.
As for `C=CCOC(=O)CCC` [ALLYL BUTANOATE], the mortality at 2500 µg/mL is 83.3%.
Same read-out and setting: then `C=CCOC(=O)CCCCCCCCC` [ALLYL DECANOATE], with 97.2%; and `C=CCOC(=O)CCCCCCCCCCC` [ALLYL DODECANOATE], with 95.9%.
`C=CCOC(=O)CCCCC` [ALLYL HEXANOATE]: the mortality at 2500 µg/mL came to 95.8%.

A further experiment concerns Cydia pomonella. The experiment in a line: Ovicidal activity against <24 hr-old Cydia pomonella (codling moth) eggs assessed as corrected mortality at 0.1 mg/ml applied as 0.1 ul drop solution topically measured for 3 days. The class given is functional. The following applies: topical, 72 h.
Take `C=CCOC(=O)CCC` [ALLYL BUTANOATE]: the mortality at 100 µg/mL amounted to 6%.
As to `C=CCOC(=O)CCCCCCCCC` [ALLYL DECANOATE], the mortality at 100 µg/mL was 7.4%.
Still for that read-out and setting: then `C=CCOC(=O)CCCCCCCCCCC` [ALLYL DODECANOATE], with 0%; and `C=CCOC(=O)CCCCC` [ALLYL HEXANOATE], with 8.4%.

Another experiment deals with Cydia pomonella. Nature of the experiment: Ovicidal activity against <24 hr-old Cydia pomonella (codling moth) eggs assessed as mortality at the stage of black head development at 10 mg/ml applied as 0.1 ul drop solution topically measured for 3 days (acetone Rvb = 94.4 +/-0.1%). Conditions: topical, 72 h. In kind it is functional.
Take `C=CCOC(=O)CCC` [ALLYL BUTANOATE]: the mortality at 10000 µg/mL was 10%.
With `C=CCOC(=O)CCCCCCCCC` [ALLYL DECANOATE], the mortality at 10000 µg/mL worked out at 14.4%.
As to `C=CCOC(=O)CCCCCCCCCCC` [ALLYL DODECANOATE], the mortality at 10000 µg/mL amounted to 18.9%.
As for `C=CCOC(=O)CCCCC` [ALLYL HEXANOATE], the mortality at 10000 µg/mL turned out to be 18.9%.

Another experiment has as its system Cydia pomonella. Nature of the experiment: Ovicidal activity against <24 hr-old Cydia pomonella (codling moth) eggs assessed as corrected mortality at 7.5 mg/ml applied as 0.1 ul drop solution topically measured for 3 days. The class given is functional. Conditions: topical, 72 h.
Turning to `C=CCOC(=O)CCC` [ALLYL BUTANOATE], the mortality at 7500 µg/mL was 100%.
The same measure, in the same setting: then `C=CCOC(=O)CCCCCCCCC` [ALLYL DECANOATE], with 100%.
`C=CCOC(=O)CCCCCCCCCCC` [ALLYL DODECANOATE]: the mortality at 7500 µg/mL was 98.8%.
On to `C=CCOC(=O)CCCCC` [ALLYL HEXANOATE], for which the mortality at 7500 µg/mL came out at 100%.

For another experiment, the system named is Cydia pomonella. The experiment in a line: Ovicidal activity against <24 hr-old Cydia pomonella (codling moth) eggs assessed as mortality applied as 0.1 ul drop solution topically measured for 3 days. In kind it is functional.
Conditions: not given
For the compound `C=CCOC(=O)CCC` [ALLYL BUTANOATE], the LC90 came out at 3200 µg/mL (≈ 25 mM).
Still for that read-out and setting: as for `C=CCOC(=O)CCCCCCCCC` [ALLYL DECANOATE], the figure is 2260 µg/mL (≈ 10.6 mM).
With `C=CCOC(=O)CCCCCCCCCCC` [ALLYL DODECANOATE], the LC90 stood at 2340 µg/mL (≈ 9.73 mM).
`C=CCOC(=O)CCCCC` [ALLYL HEXANOATE]: the LC90 was 2130 µg/mL (≈ 13.6 mM).

The experiment is the same for the next values; noted with them: Cydia pomonella, topical, 72 h.
Turning to `C=CCOC(=O)CCC` [ALLYL BUTANOATE], the 50% lethal concentration (LC50) worked out at 1060 µg/mL (≈ 8.27 mM).
On to `C=CCOC(=O)CCCCCCCCC` [ALLYL DECANOATE], for which the LC50 was 1400 µg/mL (≈ 6.59 mM).
For `C=CCOC(=O)CCCCCCCCCCC` [ALLYL DODECANOATE], the LC50 is 1140 µg/mL (≈ 4.74 mM).

Another experiment has as its system Cydia pomonella. The experiment in a line: Ovicidal activity against <24 hr-old Cydia pomonella (codling moth) eggs assessed as corrected mortality at 0.5 mg/ml applied as 0.1 ul drop solution topically measured for 3 days. The class given is functional. Conditions: topical, 72 h.
Turning to `C=CCOC(=O)CCC` [ALLYL BUTANOATE], the mortality at 500 µg/mL turned out to be 20.5%.
Consider `C=CCOC(=O)CCCCCCCCC` [ALLYL DECANOATE], for which the mortality at 500 µg/mL was determined as 12.4%.
Same read-out and setting: as for `C=CCOC(=O)CCCCCCCCCCC` [ALLYL DODECANOATE], the figure is 10%; as for `C=CCOC(=O)CCCCC` [ALLYL HEXANOATE], 22.4%.

The next experiment concerns Cydia pomonella. The experiment in a line: Ovicidal activity against <24 hr-old Cydia pomonella (codling moth) eggs assessed as corrected mortality at 1.75 mg/ml applied as 0.1 ul drop solution topically measured for 3 days. Conditions: topical, 72 h. The class given is functional.
`C=CCOC(=O)CCC` [ALLYL BUTANOATE]: the mortality at 1750 µg/mL amounted to 72%.
`C=CCOC(=O)CCCCCCCCC` [ALLYL DECANOATE]: the mortality at 1750 µg/mL came to 76.3%.
Take `C=CCOC(=O)CCCCCCCCCCC` [ALLYL DODECANOATE]: the mortality at 1750 µg/mL was found to be 71.7%.
Take `C=CCOC(=O)CCCCC` [ALLYL HEXANOATE]: the mortality at 1750 µg/mL was 83.8%.
